Results on 11 compounds are retold here after patent publication US20040230257A1, “Enhanced bioavailability of nutrients, pharmaceutical agents, and other bioactive substances through laser resonant homogenization or modification of molecular shape or crystalline form” (priority 2003, published 2004).

The subject of data set [1] is murine macrophages. Nature of the data set: Nitrite (nitric oxide) production by LPS-stimulated murine macrophages given arginine samples. The settings on record: arginine 120 mcg/ml, LPS 1 ng/ml, 24 hours; for Mean O.D. ± S.D. (optical density at 540 nm, a measure of nitrite concentration): 12 wells. In kind it is cell-based. The protocol: Paracelsian in Ithaca, N.Y., an outside independent lab, performed the following bioassays. Each arginine sample was added to 12 wells of murine macrophages to achieve a concentration of 120 mcg/ml. This is the estimated serum concentration for a 70 Kg person after ingesting a 6-gram serving of arginine, a level observed in numerous clinical studies to be associated with a wide range of physiologic benefits. LPS at 1 ng/ml was added to each well and the cells were incubated for 24 hours. The nitrite concentration in each well's supernatant was determined 24 hours after initiation of treatment as a relative measure of nitric oxide production.
The results are listed in order of relative nitrite production, from greatest to least. The first column is the Arg #, the second the mean plus or minus the standard deviation of the optical density measurement at 540 nm, a measure of nitrite concentration, and the third column the relative production of nitrites expressed in micrograms per ml as determined from optical density.

Data set [2] in a line: Case report: lupus patient on the laser treated methylation formula. The conditions noted are these: before entry, only treatment. In kind it is in vivo, human. The source says: The exemplary patient had suffered with relapsing lupus for several years. At the time of entry into the methylation formula studies of EXAMPLE 6, they had experienced a relapse of severe disease for several months.
Their disease was characterized by exquisitely tender blistering and ulcerating lesions on their hands and feet that made it difficult to walk or open a cabinet door without severe pain. Their skin was pallid, they were extremely fatigued with a chronic low energy state, and had suffered extensive hair loss. Their sedimentation rate, a marker for systemic inflammation, was highly elevated at 99, whereas a normal level would be 0-30. […] They declined the use of corticosteroids due to severe treatment side effects during a prior relapse.
The subject was randomized to the placebo control group and for 3 months had no improvement in condition. In the second phase of the study, they were placed on a high dose of the methylation formula of 6 grams of laser treated betaine plus cofactors daily. […]
The subject continued on a lower dose of the laser treated methylation formula for 5 more months, reduced to 1-2 grams of the laser treated betaine plus cofactors. […] At the end of fifth month of lower dose treatment, their sedimentation rate had dropped to the very low normal value of 1, the lowest level ever recorded for them.

For data set [3] the following is noted: cited from earlier work.
The nature of data set [4]: Pilot test: blood SAMe level and knee pain in a subject with osteoarthritis. Type of data set: in vivo, human. The source says: As a pilot test, a subject with osteoarthritis had blood SAMe levels measured while taking SAMe and then while taking a betaine formulation. […] On this level of SAMe ingestion for three months, their blood SAMe level was 4.9 (the normal range for this lab is 4.2-8.2). At this time, SAMe was discontinued and they started a methylation formula with one gram of laser treated betaine plus laser treated metabolic cofactors. The betaine and metabolic co-factors were in the same ratios as in the double blind clinical study formula to be described below.
In particular, the dual effect of raising SAMe while reducing homocysteine would be expected to preserve and improve the condition of DNA methylation, as SAMe is the exclusive methyl group donor for DNA methylation.

The conditions of data set [5]: animal studies; cited from earlier work.
The conditions of data set [6]: betaine 9 grams daily plus vitamin B12, a liver extract and a creatine precursor; placebo 25%; cited from earlier work.
A short description of data set [7]: X-ray crystallography of control vs laser treated L-arginine hydrochloride. In kind it is physicochemical. The conditions noted are these: crystallized from deionized water by slow evaporation at room temperature. How it is done:
Each sample was dissolved in 0.50 grams of deionized water. The control sample was crystallized by slow evaporation at room temperature over 24 hours. The average room temperature was approximately 26 degrees Centigrade. The average ambient humidity was approximately 33%.
The treated sample was crystallized under the same conditions with the addition of pulsed modulated energy at 532 nm as described for Arg #1 in Example 2 above. The beam was passed through the center of the meniscus of solution in the container.
Crystals from the control and treated samples were selected for further study. Selected crystals all had dimensions of approximately 0.5 mm on a side or less as per the latest standards in the art. The crystal structures were solved using a SMART X-ray diffraction analytical device.

Data set [8] can be described thus: X-ray crystallography of control vs laser treated betaine hydrochloride. In kind it is physicochemical. The conditions noted are these: crystals from deionized water. How it is done:
The control and treated betaine hydrochloride samples shown in FIGS. 5A, 5B, 5C, 5D, and 5E were prepared by dissolving 0.6 grams of betaine hydrochloride in 3.0 grams of deionized water and placing the solutions thus prepared in 10×35 mm Petri dishes. Crystallization was done in open containers by slow evaporation at room temperature, a procedure often used in the art of crystallography. Ambient humidity was maintained at or below 30 percent with laboratory dehumidifiers. The treated betaine hydrochloride was irradiated with a 670 nm continuous wave diode laser modulated at 10 MHz with a primary beam power of 2.7 milliwatts that was phase conjugated to 1.35 milliwatts. The 5 mm diameter beam was passed through the middle of fluid meniscus of the treated solution during the entire crystallization process. The control untreated betaine hydrochloride was prepared under the same conditions, except that it was not irradiated with the sparse constructive node generating laser system.
X-ray crystallography was performed using a SMART device made by Siemens. FIGS. 5C and 5D show the intermolecular hydrogen bonding of control versus laser treated betaine hydrochloride, respectively. […]

Structures are written as SMILES. Counter-ions that a name gives are not always drawn.

With `N=C(N)NCCC[C@H](N)C(=O)O` [Arg #1, L-arginine], in data set [1], the “nitric oxide byproducts produced compared with control untreated Arg #4” value is “statistically significantly less” and the “Mean O.D. ± S.D. (optical density at 540 nm, a measure of nitrite concentration)” value was “.215 ± .007”.
The matching figures for `N=C(N)NCCC[C@H](N)C(=O)O` [Arg #2, L-arginine]: “statistically significantly less” and “.219 ± .008”.
The matching figures for `N=C(N)NCCC[C@H](N)C(=O)O` [Arg #3, L-arginine]: “statistically significantly more” and “.232 ± .010”.
For `N=C(N)NCCC[C@H](N)C(=O)O` [Arg #4, L-arginine], in data set [1], the “Mean O.D. ± S.D. (optical density at 540 nm, a measure of nitrite concentration)” value is given as “.224 ± .006”.
Turning to `CCN(CCO)CCCC(C)Nc1ccnc2cc(Cl)ccc12` (stereo not drawn) [Plaquenil], in data set [2], the “relief of lupus symptoms” value is “did little to relieve their symptoms”.
In the case of `C[S+](CC[C@H](N)C(=O)[O-])C[C@H]1O[C@@H](n2cnc3c(N)ncnc32)[C@H](O)[C@@H]1O` (stereo partly drawn) [SAMe, S-adenosyl-methionine], in data set [3] (1600 mg per day), the anti-depressant effects entry is given as “comparable to tricyclic anti-depressant drugs”. For the same compound, the “time to anti-depressant effects” value in data set [3] (tricyclic medications 4-6 weeks) is “within one week”. Besides, the “blood SAMe level” value in data set [4] (800 mg of SAMe daily for three months, normal range 4.2-8.2) is given as 4.9. Besides, in data set [4] (SAMe 800 mg daily, formula with one gram laser treated betaine for one month), the knee pain result is recorded as “moderate degree of relief”.
Regarding `C[N+](C)(C)CC(=O)O` [betaine, N,N,N-trimethylglycine], the “liver SAMe levels” value in data set [5] is “up to fourfold”. In data set [6], the “mortality after one year” value is listed as “no mortality”.
As to `Cl.N=C(N)NCCC[C@H](N)C(=O)O` [control L-arginine hydrochloride, L-arginine hydrochloride], in data set [7], the “crystal form / water in the crystal lattice” value is “monohydrated crystal”.
Regarding `Cl.N=C(N)NCCC[C@H](N)C(=O)O` [laser treated L-arginine hydrochloride, L-arginine hydrochloride], the “crystal form / water in the crystal lattice” value in data set [7] is given as “free of water in the crystal lattice”.
Consider `C[N+](C)(C)CC(=O)O` [treated betaine hydrochloride, betaine hydrochloride], for which the “intermolecular hydrogen bonds per molecule” value in data set [8] is listed as 3.
In the case of `C[N+](C)(C)CC(=O)O` [untreated betaine hydrochloride, betaine hydrochloride], in data set [8], the “intermolecular hydrogen bonds per molecule” value amounted to 4.
